Values after ≈ are worked out from the molar mass of the structure shown.
Tests used:
[1] = tested on: Staphylococcus epidermidis; assay: Antibacterial activity against methicillin sensitive Staphylococcus epidermidis 17-13; assay type: functional
[2] = tested on: Staphylococcus epidermidis; assay: Antibacterial activity against methicillin resistant Staphylococcus epidermidis 19-1; assay type: functional
Staphylococcus aureus [3] = assay: Antibacterial activity against methicillin resistant Staphylococcus aureus 16-30; assay type: functional
Staphylococcus aureus [4] = assay: Selectivity ratio of MBC for bactericidal activity against methicillin resistant Staphylococcus aureus ATCC 33591 to MIC for antibacterial activity against methicillin resistant Staphylococcus aureus ATCC 33591; assay type: functional
Staphylococcus aureus [5] = assay: Antibacterial activity against methicillin sensitive Staphylococcus aureus 15; assay type: functional
Staphylococcus aureus [6] = assay: Antibacterial activity against methicillin resistant Staphylococcus aureus ATCC 43300; assay type: functional
Staphylococcus aureus [7] = assay: Antibacterial activity against methicillin sensitive Staphylococcus aureus ATCC 29213; assay type: functional
Staphylococcus aureus [8] = assay: Selectivity ratio of MBC for bactericidal activity against methicillin resistant Staphylococcus aureus ATCC 43300 to MIC for antibacterial activity against methicillin resistant Staphylococcus aureus ATCC 43300; assay type: functional
Enterococcus faecium [9] = assay: Antibacterial activity against Vanomycin-resistant Enterococcus faecium ATCC 51559; assay type: functional
[10] = tested on: Staphylococcus epidermidis; assay: Antibacterial activity against methicillin resistant Staphylococcus epidermidis 19-2; assay type: functional
Enterococcus faecium [11] = assay: Bactericidal activity against Vanomycin-resistant Enterococcus faecium ATCC 700221; assay type: functional
Enterococcus faecalis [12] = assay: Antibacterial activity against Vanomycin-resistant Enterococcus faecalis ATCC 51575; assay type: functional
Staphylococcus aureus [13] = assay: Antibacterial activity against methicillin resistant Staphylococcus aureus 18-2; assay type: functional
Enterococcus faecium [14] = assay: Selectivity ratio of MBC for bactericidal activity against Vanomycin-resistant Enterococcus faecium ATCC 700221 to MIC for antibacterial activity against Vanomycin-resistant Enterococcus faecium ATCC 700221; assay type: functional
Staphylococcus aureus [15] = assay: Antibacterial activity against methicillin sensitive Staphylococcus aureus ATCC 33591; assay type: functional
Enterococcus faecalis [16] = assay: Antibacterial activity against Vanomycin-resistant Enterococcus faecalis ATCC 51299; assay type: functional
Staphylococcus aureus [17] = assay: Bactericidal activity against methicillin resistant Staphylococcus aureus ATCC 43300; assay type: functional
Staphylococcus aureus [18] = assay: Antibacterial activity against vancomycin intermediate and methicillin resistant Staphylococcus aureus ATCC 700699; assay type: functional
[19] = Cytotoxicity against human HeLa cells by SRB assay; assay type: toxicity, cell-based
Staphylococcus aureus [20] = assay: Bactericidal activity against methicillin resistant Staphylococcus aureus 16-30; assay type: functional
Staphylococcus aureus [21] = assay: Antibacterial activity against methicillin resistant Staphylococcus aureus 20-11; assay type: functional
Enterococcus faecalis [22] = assay: Bactericidal activity against Vanomycin-resistant Enterococcus faecalis ATCC 51299; assay type: functional
Staphylococcus aureus [23] = assay: Bactericidal activity against vancomycin intermediate and methicillin resistant Staphylococcus aureus ATCC 700698; assay type: functional
Enterococcus faecium [24] = assay: Antibacterial activity against Vanomycin-resistant Enterococcus faecium ATCC 700221; assay type: functional
[25] = tested on: Staphylococcus epidermidis; assay: Antibacterial activity against methicillin sensitive Staphylococcus epidermidis ATCC 12228; assay type: functional
Staphylococcus aureus [26] = assay: Antibacterial activity against methicillin resistant Staphylococcus aureus ATCC 33591; assay type: functional
Enterococcus faecalis [27] = assay: Selectivity ratio of MBC for bactericidal activity against Vanomycin-resistant Enterococcus faecalis ATCC 51299 to MIC for antibacterial activity against Vanomycin-resistant Enterococcus faecalis ATCC 51299; assay type: functional
Staphylococcus aureus [28] = assay: Bactericidal activity against methicillin resistant Staphylococcus aureus ATCC 33591; assay type: functional
Staphylococcus aureus [29] = assay: Antibacterial activity against vancomycin intermediate and methicillin resistant Staphylococcus aureus ATCC 700698; assay type: functional
Staphylococcus aureus [30] = assay: Selectivity ratio of MBC for bactericidal activity against vancomycin intermediate and methicillin resistant Staphylococcus aureus ATCC 700698 to MIC for antibacterial activity against vancomycin intermediate and methicillin resistant Staphylococcus aureus ATCC 700698; assay type: functional
Staphylococcus aureus [31] = assay: Antibacterial activity against methicillin sensitive Staphylococcus aureus 20-12; assay type: functional
Staphylococcus aureus [32] = assay: Selectivity ratio of MBC for bactericidal activity against methicillin resistant Staphylococcus aureus 16-30 to MIC for antibacterial activity against methicillin resistant Staphylococcus aureus 16-30; assay type: functional
Enterococcus faecium [33] = assay: Antibacterial activity against Vanomycin-resistant Enterococcus faecium 15-6; assay type: functional
[34] = Cytotoxicity against human HepG2 cells by SRB assay; assay type: toxicity, cell-based

Row | Compound | MIC [1] [µM] | MIC [2] [µM] | MIC (Staphylococcus aureus [3]) [µM] | Ratio (Staphylococcus aureus [4]) | MIC (Staphylococcus aureus [5]) [µM] | MIC (Staphylococcus aureus [6]) [µM] | MIC (Staphylococcus aureus [7]) [µM] | Ratio (Staphylococcus aureus [8]) | MIC (Enterococcus faecium [9]) [µM] | MIC [10] [µM] | MIC (Enterococcus faecalis [12]) [µM] | MIC (Staphylococcus aureus [13]) [µM] | MIC (Staphylococcus aureus [15]) [µM] | MIC (Enterococcus faecalis [16]) [µM] | MBC (Staphylococcus aureus [17]) [µM] | MIC (Staphylococcus aureus [18]) [µM] | IC50 [19] [µM] | MBC (Staphylococcus aureus [20]) [µM] | MIC (Staphylococcus aureus [21]) [µM] | MIC (Enterococcus faecium [24]) [µM] | further results
1 | O=C(Nc1ccc(Cl)cc1)Nc1ccc(Cl)c(C(F)(F)F)c1 [CLOFLUCARBAN] | 0.72 (≈ 0.251 µg/mL) | 0.72 (≈ 0.251 µg/mL) | 0.72 (≈ 0.251 µg/mL) | >135 | 0.72 (≈ 0.251 µg/mL) | 0.72 (≈ 0.251 µg/mL) | 0.34 (≈ 0.119 µg/mL) | >64 | 1.43 (≈ 0.499 µg/mL) | 0.72 (≈ 0.251 µg/mL) | 2.86 (≈ 0.999 µg/mL) | 0.34 (≈ 0.119 µg/mL) | 0.34 (≈ 0.119 µg/mL) | 1.43 (≈ 0.499 µg/mL) | > 45.8 | 0.34 (≈ 0.119 µg/mL) | 4.5 | > 22.9 | 0.72 (≈ 0.251 µg/mL) | 1.43 (≈ 0.499 µg/mL) | MBC (Enterococcus faecium [11]): > 91.7 µM; Ratio (Enterococcus faecium [14]): >64; MBC (Enterococcus faecalis [22]): > 183 µM; MBC (Staphylococcus aureus [23]): > 22.9 µM; MIC [25]: 0.72 µM (≈ 0.251 µg/mL); MIC (Staphylococcus aureus [26]): 0.34 µM (≈ 0.119 µg/mL); Ratio (Enterococcus faecalis [27]): >128; MBC (Staphylococcus aureus [28]): > 45.8 µM; MIC (Staphylococcus aureus [29]): 0.72 µM (≈ 0.251 µg/mL); Ratio (Staphylococcus aureus [30]): >32; MIC (Staphylococcus aureus [31]): 1.43 µM (≈ 0.499 µg/mL); Ratio (Staphylococcus aureus [32]): >32; MIC (Enterococcus faecium [33]): 2.86 µM (≈ 0.999 µg/mL); IC50 [34]: 7.7 µM
2 | O=C(Nc1ccc(Cl)c(C(F)(F)F)c1)Nc1cc(F)c(F)c(F)c1F | 0.31 (≈ 0.12 µg/mL) | 0.31 (≈ 0.12 µg/mL) | 0.65 (≈ 0.251 µg/mL) | 33 | 0.31 (≈ 0.12 µg/mL) | 0.31 (≈ 0.12 µg/mL) | 0.31 (≈ 0.12 µg/mL) | 33 | 1.29 (≈ 0.499 µg/mL) | 0.65 (≈ 0.251 µg/mL) | 5.17 (≈ 2 µg/mL) | 0.31 (≈ 0.12 µg/mL) | 0.31 (≈ 0.12 µg/mL) | 2.59 (≈ 1 µg/mL) | 10.3 (≈ 4 µg/mL) | 0.31 (≈ 0.12 µg/mL) | 8.9 | 10.3 (≈ 4 µg/mL) | 0.31 (≈ 0.12 µg/mL) | 1.29 (≈ 0.499 µg/mL) | MBC (Enterococcus faecium [11]): > 82.8 µM; Ratio (Enterococcus faecium [14]): >32; MBC (Enterococcus faecalis [22]): > 82.8 µM; MBC (Staphylococcus aureus [23]): 10.3 µM (≈ 4 µg/mL); MIC [25]: 0.65 µM (≈ 0.251 µg/mL); MIC (Staphylococcus aureus [26]): 0.31 µM (≈ 0.12 µg/mL); Ratio (Enterococcus faecalis [27]): >32; MBC (Staphylococcus aureus [28]): 10.3 µM (≈ 4 µg/mL); MIC (Staphylococcus aureus [29]): 0.31 µM (≈ 0.12 µg/mL); Ratio (Staphylococcus aureus [30]): 33; MIC (Staphylococcus aureus [31]): 0.65 µM (≈ 0.251 µg/mL); Ratio (Staphylococcus aureus [32]): 16; MIC (Enterococcus faecium [33]): 1.29 µM (≈ 0.499 µg/mL); IC50 [34]: 7.09 µM
3 | O=C(Nc1ccc(OC(F)(F)F)cc1)Nc1ccc(Cl)c(C(F)(F)F)c1 | 0.63 (≈ 0.251 µg/mL) | 1.25 (≈ 0.498 µg/mL) | 2.51 (≈ 1 µg/mL) | >128 | 1.25 (≈ 0.498 µg/mL) | 0.63 (≈ 0.251 µg/mL) | 0.63 (≈ 0.251 µg/mL) | >255 | 2.51 (≈ 1 µg/mL) | 1.25 (≈ 0.498 µg/mL) | 2.51 (≈ 1 µg/mL) | 0.3 (≈ 0.12 µg/mL) | 1.25 (≈ 0.498 µg/mL) | 2.51 (≈ 1 µg/mL) | > 161 | 0.15 (≈ 0.0598 µg/mL) | 9.31 | > 80.3 | 0.63 (≈ 0.251 µg/mL) | 1.25 (≈ 0.498 µg/mL) | MBC (Enterococcus faecium [11]): > 321 µM; Ratio (Enterococcus faecium [14]): >257; MBC (Enterococcus faecalis [22]): > 321 µM; MBC (Staphylococcus aureus [23]): > 161 µM; MIC [25]: 1.25 µM (≈ 0.498 µg/mL); MIC (Staphylococcus aureus [26]): 1.25 µM (≈ 0.498 µg/mL); Ratio (Enterococcus faecalis [27]): >128; MBC (Staphylococcus aureus [28]): > 161 µM; MIC (Staphylococcus aureus [29]): 0.63 µM (≈ 0.251 µg/mL); Ratio (Staphylococcus aureus [30]): >255; MIC (Staphylococcus aureus [31]): 1.25 µM (≈ 0.498 µg/mL); Ratio (Staphylococcus aureus [32]): >32; MIC (Enterococcus faecium [33]): 2.51 µM (≈ 1 µg/mL); IC50 [34]: 6.27 µM
4 | O=C(Nc1ccc2c(c1)OC(F)(F)O2)Nc1ccc(Cl)c(C(F)(F)F)c1 | 1.27 (≈ 0.501 µg/mL) | 1.27 (≈ 0.501 µg/mL) | 0.63 (≈ 0.249 µg/mL) | 4 | 0.63 (≈ 0.249 µg/mL) | 0.63 (≈ 0.249 µg/mL) | 0.63 (≈ 0.249 µg/mL) | 4 | 10.1 (≈ 4 µg/mL) | 1.27 (≈ 0.501 µg/mL) | 10.1 (≈ 4 µg/mL) | 1.27 (≈ 0.501 µg/mL) | 0.63 (≈ 0.249 µg/mL) | 5.07 (≈ 2 µg/mL) | 2.53 (≈ 0.999 µg/mL) | 0.63 (≈ 0.249 µg/mL) | 9.02 | 5.07 (≈ 2 µg/mL) | 1.27 (≈ 0.501 µg/mL) | 10.1 (≈ 4 µg/mL) | MIC [25]: 1.27 µM (≈ 0.501 µg/mL); MIC (Staphylococcus aureus [26]): 0.63 µM (≈ 0.249 µg/mL); MBC (Staphylococcus aureus [28]): 2.53 µM (≈ 0.999 µg/mL); MIC (Staphylococcus aureus [29]): 0.63 µM (≈ 0.249 µg/mL); MIC (Staphylococcus aureus [31]): 1.27 µM (≈ 0.501 µg/mL); Ratio (Staphylococcus aureus [32]): 8; MIC (Enterococcus faecium [33]): 5.07 µM (≈ 2 µg/mL); IC50 [34]: 5.68 µM
5 | O=C(Nc1ccc(Cl)c(C(F)(F)F)c1)Nc1ccc(Cl)c(C(F)(F)F)c1 | 1.2 (≈ 0.501 µg/mL) | 1.2 (≈ 0.501 µg/mL) | 1.2 (≈ 0.501 µg/mL) | 4 | 1.2 (≈ 0.501 µg/mL) | 1.2 (≈ 0.501 µg/mL) | 1.2 (≈ 0.501 µg/mL) | 8 | 4.79 (≈ 2 µg/mL) | 1.2 (≈ 0.501 µg/mL) | 4.79 (≈ 2 µg/mL) | 1.2 (≈ 0.501 µg/mL) | 1.2 (≈ 0.501 µg/mL) | 4.79 (≈ 2 µg/mL) | 9.59 (≈ 4 µg/mL) | 1.2 (≈ 0.501 µg/mL) | 2.69 | 9.59 (≈ 4 µg/mL) | 1.2 (≈ 0.501 µg/mL) | 4.79 (≈ 2 µg/mL) | MIC [25]: 1.2 µM (≈ 0.501 µg/mL); MIC (Staphylococcus aureus [26]): 1.2 µM (≈ 0.501 µg/mL); MBC (Staphylococcus aureus [28]): 4.79 µM (≈ 2 µg/mL); MIC (Staphylococcus aureus [29]): 1.2 µM (≈ 0.501 µg/mL); MIC (Staphylococcus aureus [31]): 1.2 µM (≈ 0.501 µg/mL); Ratio (Staphylococcus aureus [32]): 8; MIC (Enterococcus faecium [33]): 2.4 µM (≈ 1 µg/mL); IC50 [34]: 7.72 µM

From ChEMBL document CHEMBL5223117, “Synthesis and biological evaluation of novel N, N'-diarylurea derivatives as potent antibacterial agents against MRSA” (Bioorg Med Chem Lett, 2022)
